Measured values reported in BindingDB's records for patent US20250115590 (Foresee Pharmaceuticals USA, 2025).

Target: Macrophage metalloelastase (Homo sapiens, UniProt P39900)
Test: MMP Inhibitory Assays
Procedure: The inhibitory effect of compounds on the rate of cleaving fluorogenic MMP substrate (Enzo, BML-P128) by recombinant human MMP-12 catalytic domain (Enzo, BML-SE138) was carried out by methods known in the art. Briefly, to each well of a 96-well black opaque plate, all the reagents were sequentially added by pipetting, and the final reaction contained 4 nM of recombinant human MMP-12 catalytic domain, […] MMP substrate, and various concentrations (0.15 nM to 10,000 nM) of tested compound dilutions in HEPES buffer (pH 7.5) containing 10 mM of CaCl2, 0.01% Brij 35 (polyoxyethylene (23) lauryl ether), and 0.1 mg/ml of BSA. The enzyme and compounds were pre-incubated on a shaker to mix in wells. After an hour of mixing, fluorogenic substrate was added to each well. Reaction without enzyme was used as a blank control in the plate. The plate was then fed into a plate reader to measure fluorescence intensity at Excitation/Emission wavelengths of 340 nm/440 nm every 10 mins for at least 1 hour at 37° C. The IC50 of each compound in MMP-12 inhibition was determined by using a readout obtained at time point 30 minutes.

Sequence of Macrophage metalloelastase (P39900 whole entry): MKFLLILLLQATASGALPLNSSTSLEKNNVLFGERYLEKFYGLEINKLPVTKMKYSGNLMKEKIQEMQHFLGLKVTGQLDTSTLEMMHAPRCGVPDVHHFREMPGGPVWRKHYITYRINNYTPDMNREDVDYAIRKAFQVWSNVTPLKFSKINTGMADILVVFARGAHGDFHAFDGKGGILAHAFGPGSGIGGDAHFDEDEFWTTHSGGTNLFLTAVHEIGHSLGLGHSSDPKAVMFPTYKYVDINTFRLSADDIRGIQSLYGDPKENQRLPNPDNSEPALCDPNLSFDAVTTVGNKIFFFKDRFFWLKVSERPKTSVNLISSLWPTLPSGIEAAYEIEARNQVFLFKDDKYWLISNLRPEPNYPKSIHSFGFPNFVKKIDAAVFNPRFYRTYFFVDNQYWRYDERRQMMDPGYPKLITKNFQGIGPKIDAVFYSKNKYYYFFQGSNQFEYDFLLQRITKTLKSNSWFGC

| IC50 [nM] | SMILES |
| --- | --- |
| > 1000 | O=C1NC(=O)C(c2ncoc2Sc2ccc(OCc3cccc(CO)c3)cc2)N1 (configuration not stated) [US20250115590, Compound OC-9] |
| > 1000 | Cc1cccc(COc2ccc(Sc3ocnc3C3NC(=O)NC3=O)cc2)c1 (configuration not stated) [US20250115590, Compound OC-8] |
